The values below come from US10690666B2, “Methods and compositions for modulating TH-GM cell function” (National University of Singapore, priority 2014, dated 2020).

The test system of experiment [1] is naïve CD4+ T cells. The following applies: El-Behi et al., 2011; cited from earlier work.
Experiment [2] relates to naïve CD4+ T cells. As to the kind of experiment: In vitro TH-GM (GM-CSF-expressing TH) differentiation from naïve CD4+ T cells. It counts as cell-based, mouse. As to conditions: anti-CD3 and anti-CD28 plus cytokine or antibody.
Procedure: Naïve CD4^+ T cells were primed with plate-bound anti-CD3 and soluble anti-CD28 in the presence of a combination of various cytokines and neutralizing antibodies as indicated. GM-CSF, IL-17 and IFN-γ expression was analyzed by intracellular staining (FIG. 13A) or RT-PCR (FIG. 13B)
GM-CSF and IFN-γ expression in naive CD4^+ T cells activated for 72 h with anti-CD3 alone or plus anti-CD28 (FIG. 14A). In FIG. 14B, sorted naïve CD4^+ T cells were stimulated with anti-CD3 and anti-CD28 in the presence of neutralizing antibodies against IL-12 and IFN-γ without or with the addition of IL-6. The frequencies of GM-CSF^+ and IL-17^+ cells were measured by intracellular staining (FIG. 14B). In FIG. 14C, naïve CD4^+ T cells from Stat3^+/+ and Stat3^−/− mice were polarized under conditions as indicated for 72 h. The frequencies of GM-CSF^+ and IL-17^+ cells were analyzed. In FIG. 14D, naïve CD4^+ T cells were activated with anti-CD3 and anti-CD28 in the presence of IL-2 or anti-IL-2. The frequencies of GM-CSF^+, IL-17^+ and IFN-γ^+ cells were analyzed.
Naïve CD4^+ T cells were primed with plate-bound anti-CD3 and soluble anti-CD28 in the presence of various concentration of IL-7 as indicated. GM-CSF and IFN-γ expression was analyzed by intracellular staining (FIG. 15A) or ELISA (FIG. 15B). In FIGS. 15C and 15D, Stat5^+/+ and Stat5^−/− naïve CD4^+ T cells were activated with anti-CD3 and anti-CD28 in the presence IL-7 for 3 days. GM-CSF, IL-17 and IFN-γ expression was analyzed by intracellular cytokine staining (FIG. 15C). GM-CSF secretion was measured by ELISA (FIG. 15D).
In FIG. 22E, naïve CD4^+ T cells were isolated and activated under neutral condition or TH-GM cell-favoring condition with the addition of different concentrations of STAT5 inhibitor for 3 days. GM-CSF and IFN-γ expression was analyzed by intracellular cytokine staining and flow cytometry.
CD4^+ T cells were obtained from spleens and lymph nodes by positive selection and magnetic separation (Miltenyi Biotech), followed by purification of naïve CD4^+ T cell population (CD4^+CD25^−CD62L^hiCD44^lo) sorted with FACS Aria.
Experiment [3] deals with STAT5. Put plainly: Cytokine-induced STAT5 activation in CD4+ T cells, immunoblotting. It counts as cell-based, mouse. The following applies: CD4+ T cells cultured with TGF-β and IL-6 3 days, starved 6 h, cytokine 30 min. The method, then:
In FIG. 10A, purified CD4^+ T cells were cultured with TGF-β and IL-6 for 3 days, followed by starvation for 6 h. Then cells were treated with various cytokines for 30 min, and pSTAT3 and pSTAT5 was determined by immunoblotting. STAT3 and STAT5 were further detected after stripping. […] The RT-PCR data were normalized to β-Actin. […] The frequencies of GM-CSF^+ and IL-17^+ cells among CD4^+CD44^hi T cells were measured by flow cytometry. *p<0.05.
FIGS. 17A-17C show flow cytometry of CD25 and CD127 on the surface of naïve CD4^+ T cells or cells activated with anti-CD3 and anti-CD28 at various time points as indicated. […] The RT-PCR data were normalized to β-Actin, and expression in naïve T cells activated for 2 h without cytokine was set to 1.
As shown in FIGS. 18A and 18B, CD4^+ T cells were activated with anti-CD3 and anti-CD28 for 3 days. […] The pTyr-STAT5 and β-Actin were detected by immunoblotting (FIG. 18A). GM-CSF mRNA expression was measured by RT-PCR (FIG. 18B). The RT-PCR data were normalized to β-Actin, and expression in cells without cytokine stimulation was set to 1. The ChIP assay shown in FIG. 18C was performed with normal IgG or STAT5-specific antibody. The binding of antibodies to Csf2 promoter region was detected by RT-PCR.
Next, the mechanism by which STAT5 regulates GM-CSF expression was investigated. […] Therefore, the effect of these two cytokines on GM-CSF induction in autoreactive T cells was further examined. […] GM-CSF and IL-17 production by CD4^+ T cells were analyzed by intracellular cytokine staining.
For orientation: A western blot detects proteins with antibodies after separation by electrophoresis.

TGF-β: cytokine (R&D Systems): the GM-CSF expression entry in experiment [1] was “inhibits GM-CSF expression”.
Regarding “IL-6: cytokine (R&D Systems), essential for TH17 differentiation”, the “GM-CSF-expressing cell differentiation from naïve CD4+ T cells” value (“GM-CSF-expressing cell differentiation” for short) in experiment [2] is “profound inhibitory effect”.
For the molecule IL-1β: cytokine (R&D Systems), in experiment [3], the “STAT5 activation (tyrosine phosphorylation)” value was “neither IL-23 nor IL-1β seemed to be potent STAT5 stimulators”. For the same molecule, the “GM-CSF-expressing cell differentiation” value in experiment [2] is given as “did not increase GM-CSF-expressing cell differentiation”.

B1: IL-23: cytokine (R&D Systems) (protein, UniProt Q9NPF7 20-189; P29460 23-328, looked up)
Interleukin-23 subunit alpha: RAVPGGSSPAWTQCQQLSQKLCTLAWSAHPLVGHMDLREEGDEETTNDVPHIQCGDGCDPQGLRDNSQFCLQRIHQGLIFYEKLLGSDIFTGEPSLLPDSPVGQLHASLLGLSQLLQPEGHHWETQQIPSLSPSQPWQRLLLRFKILRSLQAFVAVAARVFAHGAATLSP
Interleukin-12 subunit beta: IWELKKDVYVVELDWYPDAPGEMVVLTCDTPEEDGITWTLDQSSEVLGSGKTLTIQVKEFGDAGQYTCHKGGEVLSHSLLLLHKKEDGIWSTDILKDQKEPKNKTFLRCEAKNYSGRFTCWWLTTISTDLTFSVKSSRGSSDPQGVTCGAATLSAERVRGDNKEYEYSVECQEDSACPAAEESLPIEVMVDAVHKLKYENYTSSFFIRDIIKPDPPKNLQLKPLKNSRQVEVSWEYPDTWSTPHSYFSLTFCVQVQGKSKREKKDRVFTDKTSATVICRKNASISVRAQDRYYSSSWSEWASVPCS
Turning to B1, the “STAT5 activation (tyrosine phosphorylation)” value in experiment [3] is listed as “neither IL-23 nor IL-1β seemed to be potent STAT5 stimulators”. Besides, the “GM-CSF-expressing cell differentiation” value in experiment [2] is reported as “did not increase GM-CSF-expressing cell differentiation”.
